{
  "source": "patent US10844049B2",
  "about": "“GLP-1R agonists and uses thereof” (QILU REGOR THERAPEUTICS INC., priority 2018, dated 2020)",
  "molecular_target": "GLP1R (Homo sapiens, UniProt P43220)",
  "sequence (P43220 24-463)": "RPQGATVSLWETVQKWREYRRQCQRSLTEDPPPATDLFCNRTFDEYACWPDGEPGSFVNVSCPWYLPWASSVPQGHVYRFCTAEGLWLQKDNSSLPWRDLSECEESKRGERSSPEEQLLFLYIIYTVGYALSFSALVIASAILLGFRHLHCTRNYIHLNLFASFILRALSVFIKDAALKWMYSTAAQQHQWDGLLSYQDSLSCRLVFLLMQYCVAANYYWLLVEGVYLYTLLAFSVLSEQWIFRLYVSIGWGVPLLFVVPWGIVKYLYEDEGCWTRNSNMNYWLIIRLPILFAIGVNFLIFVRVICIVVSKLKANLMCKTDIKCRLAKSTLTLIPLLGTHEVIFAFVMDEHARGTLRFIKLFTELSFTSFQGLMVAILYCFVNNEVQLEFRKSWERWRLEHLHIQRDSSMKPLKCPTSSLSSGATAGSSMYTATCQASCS",
  "assay": "GLP1R cAMP HTRF assay, HEK293/GLP-1R/CRE/Luc (HEK293T cells)",
  "format": "cell-based",
  "settings": "read-out: EC50",
  "method": "GLP-1R-mediated agonist activity was determined with a cell-based functional assay utilizing an HTRF (Homogeneous Time-Resolved Fluorescence) cAMP detection kit (cAMP Dynamic 2 Assay Kit; CisBio cat #62AM4PEC) that measures cAMP levels in the cell. The method is a competitive immunoassay between native cAMP produced by the cells and exogenous cAMP labeled with the dye d2. The tracer binding is visualized by a mAb anti-cAMP labeled with Cryptate. The specific signal (i.e., energy transfer) is inversely proportional to the concentration of cAMP in either standard or experimental sample.\nA cell line stably expressing the receptor was isolated.\nVarying concentrations of each compound to be tested (in DMSO) were diluted in DMSO to obtain 200× compound working solution first and then 50 nl compounds were added to a white 384-well assay plate (Greiner 784075) with ECHO. The final DMSO concentration was 0.5%. The compound concentration range may be adjusted at any time.\nCells were removed from cryopreservation, re-suspended in 5 mL of Dulbecco's Phosphate Buffered Saline (DPBS-Sigma Cat # D8537) and centrifuged at 900 g for 5 min at 22° C. The cell pellet was then re-suspended in 1 mL of assay buffer [DPBS with 500 μM IBMX (Sigma #15879) and 0.1% BSA (Sigma # A1933). IBMX and BSA were freshly added on the day of assay]. A 10 μL sample of the cell suspension was counted on an Invitrogen Countess II to determine cell viability and cell count per mL. The remaining cell suspension was then adjusted with assay buffer to deliver 1000 viable cells per well using a Matrix Combi Multidrop reagent dispenser. 10 μL cell suspensions were added to each well of the assay plate which already contains compound. The plate was sealed and incubated at 37° C. with 5% CO2 for 30 minutes.\nFollowing the 30 minute incubation, 5 μL of labeled d2 cAMP and 5 μL of anti-cAMP antibody (both diluted 1:20 in cell lysis buffer; as described in the manufacturer's assay protocol) were added to each well of the assay plate. The plates w ere then incubated at room temperature and after 60 minutes, changes in the HTRF signal were read with an Envision multi-label plate reader using excitation of 330 nm and emissions of 615 and 665 nm. Raw data were converted to nM cAMP by interpolation from a cAMP standard curve (as described in the manufacturer's assay protocol) and the percent effect was determined relative to a saturating concentration of the full agonist GLP-17-37 (10 nM) included on each plate. EC50 determinations were made from agonist dose-response curves analyzed with a curve fitting program using a 4-parameter logistic dose response equation.\n3) Anti-cAMP antibody-cryptate working solution preparation • c) The lyophilisate was reconstituted with appropriate amount of distilled water according to manufacturer's instruction to make working stock which can be aliquoted and frozen (−20° C.). • d) The working stock solution was diluted 1:20 in the conjugate and lysis buffer before use. Procedures Procedures for Cell Suspension Preparation • 1. Frozen cells were thawed very briefly in a 37° C. water bath under sterile conditions until just before ice completely melt (for about 1 minute) with a continuous agitation. Caution was taken because a longer incubation could result in cell death. • 2. DMSO was removed from the media by carefully transferring thawed cells to a sterile 15/50 mL tube, filling a tube with 10-50 mL of complete media pre-warmed to 37° C., and allowing the cells to sit 5 min before centrifuging at 900 rpm for 5 minutes for cell collection. • 3. The cells were resuspended with assay buffer. • 4. For stable GLP1-R assay, the optimized cell density is 1000 cells/well. Caution was taken because cell density optimization was crucial and needed to be optimized in different laboratories. The level of cAMP produced by the cells must fall within the linear range of the standard curve.",
  "data": [
    {"molecule": "O=C(O)c1ccc2nc(CN3CC=C(c4cccc(N5CCc6cc(Cl)ccc6C5)n4)CC3)n(C[C@@H]3CCO3)c2c1", "note": "[Compound 39, (S)-2-((6-(6-chloro-3,4-dihydroisoquinolin-2(1H)-yl)-3′,6′-dihydro-[2,4′-bipyridin]-1′(2′H)-yl)methyl)-1-(oxetan-2-ylmethyl)-1 h-benzo[d]imidazole-6-carboxylic add]", "values": [
      {"measurement": "EC50", "value": "≤ 150", "unit": "nM"}
    ]},
    {"molecule": "O=C(O)c1ccc2nc(CN3CCN(c4ccc(=O)n(Cc5ccc(Cl)cc5F)n4)CC3)n(C[C@@H]3CCO3)c2c1", "note": "[Compound 7, (S)-2-((4-(1-(4-chloro-2-fluorobenzyl)-6-oxo-1,6-dihydropyridazin-3-yl)piperazin-1-yl)methyl)-1-(oxetan-2-ylmethyl)-1 h-benzo[d]imidazole-6-carboxylic acid]", "values": [
      {"measurement": "EC50", "value": "> 1000", "unit": "nM"}
    ]},
    {"molecule": "CC1(C)CN(Cc2nc3ccc(C(=O)O)cc3n2C[C@@H]2CCO2)CC=C1c1cccc(OCc2ccc(C#N)cc2F)n1", "note": "[Compound 235, (S)-2-((6-((4-cyano-2-fluorobenzyl)oxy)-3′,3′-dimethyl-3′,6′-dihydro-[2H′-bipyridin]-1′(2′H)yl)methyl)-1-(oxetan-2-ylmethyl)-1H-benzo[d]imidazole-6-carboxylic add]", "values": [
      {"measurement": "EC50", "value": "≤ 1000", "unit": "nM"}
    ]},
    {"molecule": "O=C(O)c1ccc2nc(CN3CC=C(c4ccc(F)c(NCc5ccc(Cl)cc5F)c4)CC3)n(C[C@@H]3CCO3)c2c1", "note": "[Compound 129, (S)-2-((4-(3-((4-chloro-2-fluorobenzyl)amino)-4-fluorophenyl)-3,6-dihydropyridin-1(2H)-yl)methyl)-1-(oxetan-2-ylmethyl)-1H-benzo[d]imidazole-6-carboxylic acid]", "values": [
      {"measurement": "EC50", "value": "≤ 15", "unit": "nM"}
    ]},
    {"molecule": "O=C(O)c1ccc2nc(CN3CCN(c4cc5ccccc5c(OCc5ccc(Cl)cc5F)n4)CC3)n(C[C@@H]3CCO3)c2c1", "note": "[Compound 36, (S)-2-((4-(1-((4-chloro-2-fluorobenzyl)oxy)isoquinolin-3-yl)piperazin-1-yl)methyl)-1-(oxetan-2-ylmethyl)-1 h-benzo[d]imidazole-6-carboxylic acid]", "values": [
      {"measurement": "EC50", "value": "≤ 1000", "unit": "nM"}
    ]},
    {"molecule": "CC(c1ncco1)n1c(CN2CC=C(c3cccc(OCc4ccc(Cl)cc4F)n3)CC2)nc2ccc(C(=O)O)cc21", "note": "(centres unmarked) [Compound 112, 2-((6-((4-chloro-2-fluorobenzyl)oxy)-3′,6′-dihydro-[2,4′-bipyridin]-1′(2′H)-yl)methyl)-1-(1-(oxazol-2-yl)ethyl)-1H-benzo[d]imidazole-6-carboxylic acid]", "values": [
      {"measurement": "EC50", "value": "≤ 1000", "unit": "nM"}
    ]},
    {"molecule": "O=C(O)c1ccc2nc(CN3CCN(c4cccc(OCc5ccc(Cl)cc5F)c4)CC3)n(C[C@@H]3CCO3)c2c1", "note": "[Compound 178, (S)-2-((4-(3-((4-chloro-2-fluorobenzyl)oxy)phenyl)piperazin-1-yl)methyl)-1-(oxetan-2-ylmethyl)-1H-benzo[d]imidazole-6-carboxylic add]", "values": [
      {"measurement": "EC50", "value": "≤ 15", "unit": "nM"}
    ]},
    {"molecule": "N#Cc1ccc(COc2nc(C3=CCN(Cc4nc5ccc(C(=O)O)cc5n4C[C@@H]4CCO4)CC3)c(F)cc2F)c(F)c1", "note": "[Compound 212, (S)-2-((6-((4-cyano-2-fluorobenzyl)oxy)-3,5-difluoro-3′,6′-dihydro-[2,4′-bipyridin]-1′(2′H)-yl)methyl)-1-(oxetan-2-ylmethyl)-1H-benzo[d]imidazole-6-carboxylic add]", "values": [
      {"measurement": "EC50", "value": "≤ 15", "unit": "nM"}
    ]},
    {"molecule": "CC(C)(C)c1ccc(COc2cccc(C3=CCN(Cc4nc5ccc(C(=O)O)cc5n4C[C@@H]4CCO4)CC3)n2)cc1", "note": "[Compound 147, (S)-2-((6-((4-(tert-butyl)benzyl)oxy)-5′,6′-dihydro-[2,4′-bipyridin]-1′(2H)-yl)methyl)-1-(oxetan-2-ylmethyl)-1H-benzo[d]imidazole-6-carboxylic add]", "values": [
      {"measurement": "EC50", "value": "≤ 1000", "unit": "nM"}
    ]},
    {"molecule": "O=C(O)c1cc2c(cc1F)nc(CN1CC=C(c3cccc(OCc4ccc(Cl)cc4F)n3)CC1)n2C[C@@H]1CCO1", "note": "[Compound 172, (S)-2-((6-((4-chloro-2-fluorobenzyl)oxy)-3′,6′-dihydro-[2H′-bipyridin]-1′(2′H)-yl)methyl)-5-fluoro-1-(oxetan-2-ylmethyl)-1H-benzo[d]imidazole-6-carboxylic acid]", "values": [
      {"measurement": "EC50", "value": "≤ 15", "unit": "nM"}
    ]},
    {"molecule": "O=C(O)c1ccc2nc(CN3CCC(n4c(=O)n(CCc5ccc(Cl)cc5F)c5ccccc54)CC3)n(C[C@@H]3CCO3)c2c1", "note": "[Compound 52, (S)-2-((4-(3-(4-chloro-2-fluorophenethyl)-2-oxo-2,3-dihydro-1 h-benzo[d]imidazol-1-yl)piperidin-1-yl)methyl)-1-(oxetan-2-ylmethyl)-1 h-benzo[d]imidazole-6-carboxylic acid]", "values": [
      {"measurement": "EC50", "value": "> 1000", "unit": "nM"}
    ]},
    {"molecule": "O=C(O)c1ccc2nc(CN3CC=C(c4cccc(OCc5ccc(Cl)cc5F)c4F)CC3)n(C[C@@H]3CCO3)c2c1", "note": "[Compound 40, (S)-2-((4-(3-(4-chloro-2-fluorobenzyloxy)-2-fluorophenyl)-5,6-dihydropyridin-1(2H)-yl)methyl)-1-(oxetan-2-ylmethyl)-1 h-benzo[d]imidazole-6-carboxylic add]", "values": [
      {"measurement": "EC50", "value": "≤ 1000", "unit": "nM"}
    ]},
    {"molecule": "O=C(O)c1ccc2nc(CN3CCN(c4cccn(CCc5ccc(Cl)cc5F)c4=O)CC3)n(C[C@@H]3CCO3)c2c1", "note": "[Compound 8, (S)-2-((4-(1-(4-chloro-2-fluorophenethyl)-2-oxo-1,2-dihydropyridin-3-yl)piperazin-1-yl)methyl)-1-(oxetan-2-ylmethyl)-1h-benzo[d]imidazole-6-carboxylic acid]", "values": [
      {"measurement": "EC50", "value": "> 1000", "unit": "nM"}
    ]},
    {"molecule": "N#Cc1ccc(COc2cccc(N3CCN(Cc4nc5ccc(C(=O)O)cc5n4C[C@@H]4CCO4)CC3)c2)c(F)c1", "note": "[Compound 193, (S)-2-((4-(3-(4-cyano-2-fluorobenzyloxy)phenyl)piperazin-1-yl)methyl)-1-(oxetan-2-ylmethyl)-1H-benzo[d]imidazole-6-carboxylic acid]", "values": [
      {"measurement": "EC50", "value": "≤ 150", "unit": "nM"}
    ]},
    {"molecule": "Cc1c(C(=O)O)ccc2nc(CN3CC=C(c4cccc(OCc5ccc(Cl)cc5)n4)CC3)n(C[C@@H]3CCO3)c12", "note": "[Compound 110, (S)-2-((6-((4-chlorobenzyl)oxy)-3′,6′-dihydro-[2,4′-bipyridin]-1′(2′H)-yl)methyl)-7-methyl-1-(oxetan-2-ylmethyl)-1H-benzo[d]imidazole-6-carboxylic add]", "values": [
      {"measurement": "EC50", "value": "≤ 15", "unit": "nM"}
    ]},
    {"molecule": "O=C(O)c1ccc2nc(CN3CC=C(c4cccc(OCc5cccc(F)c5)n4)CC3)n(C[C@@H]3CCO3)c2c1", "note": "[Compound 156, (S)-2-((6-((3-fluorobenzyl)oxy)-3′,6′-dihydro-[2,4′-bipyridin]-1′(2′H)-yl)methyl)-1-(oxetan-2-ylmethyl)-1H-benzo[d]imidazole-6-carboxylic add]", "values": [
      {"measurement": "EC50", "value": "≤ 150", "unit": "nM"}
    ]},
    {"molecule": "CCOc1ccc(COc2cccc(C3=CCN(Cc4nc5ccc(C(=O)O)cc5n4C[C@@H]4CCO4)CC3)n2)cc1OC", "note": "[Compound 166, (S)-2((6-((4-ethoxy-3-methoxybenzyl)oxy)-3′,6′-dihydro-[2,4′-bipyridin]-1′(2′H)-yl)methyl)-1-(oxetan-2-ylmethyl)-1H-benzo[d]imidazole-6-carboxylic acid]", "values": [
      {"measurement": "EC50", "value": "≤ 150", "unit": "nM"}
    ]},
    {"molecule": "O=C(O)c1ccc2nc(CN3CCN(c4ccc(F)c(OCc5ccc(C#CC6CC6)cc5F)c4)CC3)n(C[C@@H]3CCO3)c2c1", "note": "[Compound 196, (S)-2-((4-(3-((4-(cyclopropylethynyl)-2-fluorobenzyl)oxy)-4-fluorophenyl)piperazin-1-yl)methyl)-1-(oxetan-2-ylmethyl)-1H-benzo[d]imidazole-6-carboxylic add]", "values": [
      {"measurement": "EC50", "value": "≤ 150", "unit": "nM"}
    ]},
    {"molecule": "O=c1[nH]c(-c2ccc3nc(CN4CC=C(c5cccc(OCc6ccc(Cl)cc6F)n5)CC4)n(C[C@@H]4CCO4)c3c2)no1", "note": "[Compound 62, (S)-3-(2-((4-(6-(4-chloro-2-fluorobenzyloxy)pyridin-2-yl)-5,6-dihydropyridin-1(2H)-yl)methyl)-1-(oxetan-2-ylmethyl)-1H-benzo[d]imidazol-6-yl)-1,2,4-oxadiazol-5(4H)-one]", "values": [
      {"measurement": "EC50", "value": "≤ 150", "unit": "nM"}
    ]},
    {"molecule": "Cn1c(CN2CCN(c3cccc(OCc4ccc(Cl)cc4F)n3)CC2)cc2ccc(C(=O)O)cc21", "note": "[Compound 50, 2-((4-(6-(4-chloro-2-fluorobenzyloxy)pyridin-2-yl)piperazin-1-yl)methyl)-1-methyl-1 h-indole-6-carboxylic add]", "values": [
      {"measurement": "EC50", "value": "> 1000", "unit": "nM"}
    ]}
  ]
}
